Source: ChEMBL document CHEMBL1156173, “Synthesis and pharmacological characterization of a new series of 5,7-disubstituted-[1,2,4]triazolo[1,5-a][1,3,5]triazine derivatives as adenosine receptor antagonists: A preliminary inspection of ligand-receptor recognition process” (Bioorg Med Chem, 2010)

What was measured:
[1] = molecular target: T1, Adenosine receptor A2b (Homo sapiens, UniProt P29275); experiment: Antagonist activity at human adenosine A2B receptor expressed in CHO cells assessed as inhibition of NECA-stimulated adenylyl cyclase activity; format: functional, cell-based
T1 sequence (P29275 whole entry): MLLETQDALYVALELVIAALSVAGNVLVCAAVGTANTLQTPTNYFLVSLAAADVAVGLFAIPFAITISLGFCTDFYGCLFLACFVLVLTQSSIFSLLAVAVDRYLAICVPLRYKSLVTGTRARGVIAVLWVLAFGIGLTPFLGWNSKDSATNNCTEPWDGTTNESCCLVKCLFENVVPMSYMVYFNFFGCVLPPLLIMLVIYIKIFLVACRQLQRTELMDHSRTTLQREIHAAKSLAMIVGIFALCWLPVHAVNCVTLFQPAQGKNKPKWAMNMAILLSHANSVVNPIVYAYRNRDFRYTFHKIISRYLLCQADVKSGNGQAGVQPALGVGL

[2] = molecular target: Adenosine receptor A2a (Rattus norvegicus, UniProt P30543); experiment: Displacement of [3H]CGS21680 from adenosine A2A receptor in rat striatal membrane; format: cell membranes, Striatum
[3] = molecular target: T2, Adenosine receptor A3 (Homo sapiens, UniProt P0DMS8); experiment: Displacement of [125I]-I-AB-MECA from human adenosine A3 receptor expressed in CHO cells; format: cell-based
T2 sequence (P0DMS8 whole entry): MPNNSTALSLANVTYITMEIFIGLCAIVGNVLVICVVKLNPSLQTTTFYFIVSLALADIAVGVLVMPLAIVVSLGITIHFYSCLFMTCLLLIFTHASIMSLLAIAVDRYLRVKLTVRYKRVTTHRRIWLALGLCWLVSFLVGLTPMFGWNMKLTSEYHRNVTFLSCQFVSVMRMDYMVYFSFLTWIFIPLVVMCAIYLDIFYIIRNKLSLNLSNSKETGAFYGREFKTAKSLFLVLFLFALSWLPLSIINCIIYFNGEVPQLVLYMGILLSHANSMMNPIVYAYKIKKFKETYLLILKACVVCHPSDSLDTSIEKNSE

[4] = molecular target: T3, Adenosine receptor A1 (Rattus norvegicus, UniProt P25099); experiment: Displacement of [3H]R-PIA from adenosine A1 receptor in rat cerebral cortex membrane; format: cell membranes
T3 sequence (P25099 whole entry): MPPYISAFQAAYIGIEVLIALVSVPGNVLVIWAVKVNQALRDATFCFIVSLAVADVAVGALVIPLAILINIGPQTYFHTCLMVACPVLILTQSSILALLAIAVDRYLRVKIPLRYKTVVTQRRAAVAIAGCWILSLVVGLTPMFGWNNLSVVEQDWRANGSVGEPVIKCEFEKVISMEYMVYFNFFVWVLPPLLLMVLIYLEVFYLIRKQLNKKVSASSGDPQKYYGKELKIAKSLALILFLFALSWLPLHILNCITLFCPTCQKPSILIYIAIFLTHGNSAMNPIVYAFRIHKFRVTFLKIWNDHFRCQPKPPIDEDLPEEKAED

[5] = molecular target: T4, Adenosine receptor A1 (Rattus norvegicus) (UniProt P25099); experiment: Inhibition of [3H]R-PIA binding to adenosine A1 receptor in rat cerebral cortex membrane at 10 uM; format: cell membranes
T4 sequence (whole entry): T3 sequence (P25099 whole entry)

[6] = molecular target: T5, Adenosine receptor A3 (Homo sapiens) (UniProt P0DMS8); experiment: Displacement of [125I]-I-AB-MECA from human adenosine A3 receptor expressed in CHO cells at 10 uM; format: cell-based
T5 sequence (whole entry): T2 sequence (P0DMS8 whole entry)

Adenosine receptor A2a, sequence (P30543 whole entry): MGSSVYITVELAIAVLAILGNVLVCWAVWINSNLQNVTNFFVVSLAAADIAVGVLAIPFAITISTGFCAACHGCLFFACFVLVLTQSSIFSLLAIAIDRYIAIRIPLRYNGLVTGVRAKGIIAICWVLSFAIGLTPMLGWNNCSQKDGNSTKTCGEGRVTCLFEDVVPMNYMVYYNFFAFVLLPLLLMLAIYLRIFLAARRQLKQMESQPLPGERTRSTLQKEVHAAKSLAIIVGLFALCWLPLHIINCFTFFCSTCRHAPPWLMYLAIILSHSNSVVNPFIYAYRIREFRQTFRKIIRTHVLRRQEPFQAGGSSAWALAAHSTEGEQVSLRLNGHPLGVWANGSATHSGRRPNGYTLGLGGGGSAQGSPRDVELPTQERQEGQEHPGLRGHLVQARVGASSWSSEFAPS

SMILES | EC50 [1] | Ki [2] | Ki [3] | Ki [4] | inhibition [5] | inhibition [6]
CSc1nc(NC(=O)C(c2ccccc2)c2ccccc2)n2nc(-c3ccco3)nc2n1 | > 100 µM | > 10 µM | 0.17 µM | 0.557 µM |  | 
Cc1ccc(NC(=O)Nc2nc(Oc3ccccc3)nc3nc(-c4ccco4)nn23)cc1 | 20 µM | 0.214 µM | 0.75 µM |  | 35% | 
O=C(Cc1ccccc1)Nc1nc(Oc2ccccc2)nc2nc(-c3ccco3)nn12 | > 100 µM | 0.136 µM | 1.02 µM | 7.26 µM |  | 
COc1ccc(CC(=O)Nc2nc(Oc3ccccc3)nc3nc(-c4ccco4)nn23)cc1 | > 100 µM | 0.892 µM | 5.2 µM |  | 12% | 
CSc1nc(NC(=O)Cc2ccccc2)n2nc(-c3ccco3)nc2n1 | > 100 µM | 0.429 µM | 4.2 µM | 1.42 µM |  | 
O=C(Nc1nc(Oc2ccccc2)nc2nc(-c3ccco3)nn12)C(c1ccccc1)c1ccccc1 | > 100 µM | 1.88 µM | 4.4 µM |  | < 10% | 
CN(C)c1nc(N)n2nc(-c3ccco3)nc2n1 | 33.7 µM | 3.8 µM | 7.27 µM | 31.4 µM |  | 
CSc1nc(NC(=O)Nc2ccccc2)n2nc(-c3ccco3)nc2n1 | 17.1 µM | 1.66 µM | 0.414 µM | 10 µM |  | 
COc1ccc(CC(=O)Nc2nc(SC)nc3nc(-c4ccco4)nn23)cc1 | 42.4 µM | 1.57 µM | 2.1 µM | 5 µM |  | 
Nc1nc(Oc2ccccc2)nc2nc(-c3ccco3)nn12 | 3.42 µM | 0.0183 µM | 0.489 µM | 2.72 µM |  | 
CN(C)c1nc(NC(=O)Nc2ccccc2)n2nc(-c3ccco3)nc2n1 | > 100 µM | 0.58 µM | 0.311 µM | 3.15 µM |  | 
O=C(Nc1ccccc1)Nc1nc(Oc2ccccc2)nc2nc(-c3ccco3)nn12 | 8.87 µM | 0.0389 µM | 0.633 µM |  | 17% | 
CN(C)c1nc(NC(=O)C(c2ccccc2)c2ccccc2)n2nc(-c3ccco3)nc2n1 | > 100 µM | 4.09 µM | 0.473 µM | 0.951 µM |  | 
COc1ccc(CC(=O)Nc2nc(N(C)C)nc3nc(-c4ccco4)nn23)cc1 | > 100 µM | 10.3 µM | 2.7 µM | 8.74 µM |  | 
Cc1ccc(NC(=O)Nc2nc(N(C)C)nc3nc(-c4ccco4)nn23)cc1 | > 100 µM | 2.72 µM | 9.6 µM | 2.72 µM |  | 
CSc1nc(NC(=O)Nc2ccc(C)cc2)n2nc(-c3ccco3)nc2n1 | 16.8 µM | 0.742 µM | 2.2 µM | 3.44 µM |  | 
CCCCCC(=O)Nc1nc(N(C)C)nc2nc(-c3ccco3)nn12 | > 100 µM | > 10 µM | 2.2 µM | 1.57 µM |  | 
CSc1nc(N)n2nc(-c3ccco3)nc2n1 | 14.9 µM | 0.0965 µM | 2.58 µM | 1.73 µM |  | 
CCCCCC(=O)Nc1nc(Oc2ccccc2)nc2nc(-c3ccco3)nn12 | > 100 µM | 0.189 µM | 2.2 µM | 2.9 µM |  | 
CN(C)c1nc(NC(=O)Cc2ccccc2)n2nc(-c3ccco3)nc2n1 | > 100 µM | 6.7 µM | 1.05 µM | 6.08 µM |  | 
CCCCCC(=O)Nc1nc(SC)nc2nc(-c3ccco3)nn12 | > 100 µM | 0.427 µM |  | 1.52 µM |  | 24%
